# Experiments:
# Assay in all cases: In Vitro Antibacterial Activity, agar dilution MIC
# Assay type in all cases: cell-based
# Acinetobacter SP CMX 699 = details: BHI agar dilution, 20-24 hours, unit assumed
# Method: (§1) The activity of the compounds of the present invention was tested against a wide variety of bacteria using standard assay procedures. Minimum inhibitory concentrations (MICs) were determined by the agar dilution method, described below, using Brain Heart Infusion agar.
# (§2) Twelve petri dishes were prepared, each containing successive aqueous 2-fold dilutions of the test compounds mixed with 10 mL of sterilized Brain Heart Infusion (BHI) agar. Each plate was inoculated with 100-fold (or 10-fold, for slow-growing strains such as Micrococcus and Streptococcus) dilutions of up to 32 different microorganisms using a Steers replicator block calibrated to deliver approximately 10^4 colony forming units (CFUs). The inoculated plates were incubated at about 35°-37° C. for approximately 20-24 hours. In addition, a control plate, using BHI agar containing no test compound, was prepared and incubated at the beginning and at the end of each test. Ciprofloxacin was used as the reference antibiotic.
# (§3) The MIC was defined as the lowest concentration of test compound yielding no growth (a slight haze or sparsely isolated colonies at the inoculum spot as compared to the growth control contaning no test compound.
# [1] = system: Staphylococcus aureus ATCC 6538P; details: S. aureus ATCC 6538P; BHI agar dilution, 20-24 hours; unit assumed
# Method: as §1, §2, §3
# Escherichia coli DC-2 = details: E. coli DC-2; BHI agar dilution, 20-24 hours; unit assumed
# Method: as §1, §2, §3
# [2] = system: Staphylococcus epidermidis 3519; details: S. epidermidis 3519; BHI agar dilution, 20-24 hours; unit assumed
# Method: as §1, §2, §3
# [3] = system: Pseudomonas aeruginosa K799/WT; details: P. aeruginosa K799/WT; BHI agar dilution, 20-24 hours; unit assumed
# Method: as §1, §2, §3
# [4] = system: Streptococcus bovis A5169; details: S. bovis A5169; BHI agar dilution, 20-24 hours; unit assumed
# Method: as §1, §2, §3
# [5] = system: Staphylococcus aureus 45 RAR2; details: S. aureus 45 RAR2; BHI agar dilution, 20-24 hours; unit assumed
# Method: as §1, §2, §3
# [6] = system: Micrococcus luteus ATCC 4698; details: M. luteus ATCC 4698; BHI agar dilution, 20-24 hours; unit assumed
# Method: as §1, §2, §3
# [7] = system: Streptococcus pyogenes EES61; details: S. pyogenes EES61; BHI agar dilution, 20-24 hours; unit assumed
# Method: as §1, §2, §3
compound,measurement,setting,value
CN(C)CC1COC2(CCN(c3nc4c(cc3F)c(=O)c(C(=O)O)cn4-c3ccc(F)cc3F)C2)O1 (stereo not drawn) [Example 445],MIC values,Acinetobacter SP CMX 699,6.2 µg/mL
same,MIC values,[1],0.2 µg/mL
same,MIC values,Escherichia coli DC-2,12.5 µg/mL
same,MIC values,[2],0.39 µg/mL
same,MIC values,[3],12.5 µg/mL
same,MIC values,[4],1.56 µg/mL
same,MIC values,[5],0.78 µg/mL
same,MIC values,[6],12.5 µg/mL
same,MIC values,[7],0.78 µg/mL

# Reference: patent US5137892A, “Quinoline, naphthyridine and pyridobenzoxazine derivatives” (Abbott Laboratories, priority 1990, dated 1992)
